The test system of assay [1] is Streptococcus mutans R9. Kind of assay: Synergy of flavour material with xylitol in reducing acid production (glucose/xylitol broth pH test). The assay is classed as cell-based. Particulars: anaerobic incubation 18-24 hours, pH difference between broths. The procedure:
Xylitol is a sugar substitute that has been used in many products as a non-cariogenic sweetener. The potential synergy between xylitol and a flavour material useful in the composition of the invention was investigated using a glucose/xylitol broth by the following method. Flavour materials were tested at 250 ppm unless otherwise stated.
(§1) 250 ml of PM broth (of formulation as described in Example 1(a) above) was charged to a Duran bottle bunged with a breathable stopper and inoculated with a loopful of Streptococcus mutans R9 (as above). The bacterial culture was then incubated anaerobically for 2-3 days at 37° C., followed by centrifugation at 3600 rpm for 10 minutes. The supernatant was decanted to waste. The pellets remaining were resuspended in 12 ml of 0.1% peptone and the optical density at 540 nm (OD540) measured and adjusted (if required) by diluting with fresh PM broth to between 0.2 and 0.3 to give a stock inoculum culture.
(§2) Broth was prepared by adding 4% (w/v) glucose to 0.3% (w/v) TSB broth (GTSB). The broth was sterilised by aseptically passing the solution through a 0.22 μm filter into a sterile bottle.
Control and flavour material incubations were prepared as described in Example 1(b) above. Xylitol synergy was investigated by adding 2.5 ml of stock inoculum culture to 2.5 ml of GTSB supplemented with 4% (w/v) xylitol. […]
(§3) After anaerobic incubation of the resulting mixtures for 18-24 hours, the pH of the suspensions was measured using a 476530M combination pH electrode (Mettler Toledo, 64 Boston Road, Beaumont Leys, Leicester, LE4 1AW), calibrated using pH 4 and pH 7 buffers. Results were recorded as the difference in pH change between broths.
If the pH of the incubated broth containing flavour material and xylitol was higher than that recorded for incubated broths containing either flavour material or xylitol, then this was considered to indicate that there was a synergy between the flavour material and xylitol in reducing the acid production of Streptococcus mutans. […]

The subject of assay [2] is Streptococcus mutans R9. Kind of assay: Synergy of flavour material with fluoride in reducing acid production (bottle pH test). The assay is classed as cell-based. Particulars: flavour material at 250 ppm plus fluoride (NaF); 2% glucose; anaerobic incubation 18-24 hours; pH difference between broths. The procedure: as §1, §2
Control incubations were prepared by adding 2.5 ml of the stock inoculum culture (adjusted to an OD540 of 0.2-0.3) to 2.5 ml of GTSB containing 4% (w/v) glucose in 0.3% (w/v) TSB.
A test flavour material/flavour was diluted in the GTSB to give a stock solution of flavour material/flavour with a final concentration of 25,000 ppm (250 mg flavour material/flavour in 10 ml of GTSB).
Flavour material/flavour incubations were prepared by adding 2.5 ml of the stock inoculum culture to 2.45 ml of GTSB, and 50 μl of flavour material/flavour stock solution. Thus, flavour materials/flavours were tested at a final concentration of 250 ppm, for their efficacy in inhibiting acid production from 2% glucose.
The mixtures were then incubated anaerobically.
After anaerobic incubation of the resulting mixtures for 18-24 hours, the pH of the suspensions was measured using a 476530M combination pH electrode (Mettler Toledo, 64 Boston Road, Beaumont Leys, Leicester, LE4 1AW), calibrated using pH 4 and pH 7 buffers. Results were recorded as the difference in pH change between broths containing flavour material/flavour and an untreated control.
Flavour materials useful in a flavour composition of the invention were tested at 250 ppm for their potential synergy with fluoride as described below.
Control and flavour material incubations were prepared as described in Example 1(b) above.
A fluoride stock solution (2,500 ppm F^−) was prepared by dissolving […] NaF in 10 ml of GTSB. For fluoride controls, 2.5 ml of stock inoculum culture was added to 2.48 ml of GTSB, and 20 μl of fluoride stock solution.
For flavour material and fluoride incubations, 2.5 ml of stock inoculum culture was added to 2.43 ml of GTSB, 50 μl of flavour material stock solution and 20 μl of fluoride stock solution.
The mixtures were incubated anaerobically.
as §3
If the pH of the incubated broth containing flavour material and fluoride was higher than that measured for incubated broths containing either flavour material or fluoride, then this was considered to indicate that there had been a synergistic effect between the flavour material and fluoride in reducing the acid production of Streptococcus mutans.

With `CCCCCCCCCO` [Alcohol C9, nonanol], in the assay with Streptococcus mutans R9 [1] (flavour material at 62.5 ppm), the “Synergy with Xylitol” value was “+++ (Inhibition of acid production by an additional 0.50-0.74 pH units)”.
As to `CCCCCCCCCCO` [Alcohol C10 (Decanol), decanol], the “Synergy with Fluoride” value in the assay on Streptococcus mutans R9 [2] is “++++ (Inhibition of acid production by an additional 0.75 pH units or more (i.e. >0.75 pH units in addition to the effect of fluoride or flavour material alone))”.
With `CCCCCCCCCC=O` [Aldehyde C10 (Decanal), decanal], in the assay with Streptococcus mutans R9 [2], the “Synergy with Fluoride” value is listed as “++ (Inhibition of acid production by an additional 0.25-0.49 pH units)”.
Turning to `CC=Cc1ccc(OC)cc1` [Anethole Synthetic, anethole], the “Synergy with Fluoride” value in the assay with Streptococcus mutans R9 [2] is recorded as “++++ (Inhibition of acid production by an additional 0.75 pH units or more (i.e. >0.75 pH units in addition to the effect of fluoride or flavour material alone))”.
The same measure, in the same setting: in the case of `O=C/C=C/c1ccccc1` [Cinnamic Aldehyde Extra, cinnamic aldehyde] it was “++ (Inhibition of acid production by an additional 0.25-0.49 pH units)”; in that of `CC(C)=CCCC(C)=CC=O` [Citral Natural, citral], “+ (Inhibition of acid production by an additional 0.01-0.24 pH units)”.
Turning to `CC(=O)/C=C/C1C(C)=CCCC1(C)C` (stereo not drawn) [Ionone Alpha, ionone alpha], the “Synergy with Xylitol” value in the assay with Streptococcus mutans R9 [1] (flavour material at 125 ppm) is listed as “++++ (Inhibition of acid production by an additional 0.75 pH units or more (i.e. >0.75 pH units in addition to the effect of fluoride or flavour material alone))”.
As for `Cc1ccc(C(C)C)c(O)c1` [Thymol, thymol], the “Synergy with Fluoride” value with Streptococcus mutans R9 [2] was “+ (Inhibition of acid production by an additional 0.01-0.24 pH units)”.
For Damascone, in the assay with Streptococcus mutans R9 [1] (flavour material at 250 ppm), the “Synergy with Xylitol” value is reported as “++ (Inhibition of acid production by an additional 0.25-0.49 pH units)”.

(Values after patent US20060153958A1, “Relating to flavour compositions” (priority 2003, published 2006).)
